Here are results for two compounds from patent US20100122362A1, “CELLS EXPRESSING ALPHA-SYNUCLEIN AND USES THEREFOR” (priority 2006, published 2010).

Molecules are shown by their SMILES.

Assay [1] relates to TS217 cells. The protocol:
To determine the effect of overexpression of wild-type alpha-synuclein on cell viability using the stable, inducible system, TS217 cells were treated with 0.1 μg/mL tetracycline for three to six days to induce expression of alpha-synuclein. The relative viability of the cells was assessed at one day intervals (day 3, day 4, day 5, and day 6) by measuring the cellular ATP level in cell lysates using a ViaLight® Plus Bioassay kit (Cambrex, Rockland, Me.). Relative cell viability was calculated as the ratio of induced cells to control cells (cells not treated with tetracycline), as an indication of alpha-synuclein-induced cytotoxicity (see FIG. 3).
To determine whether the effect of tetracycline on cell viability was concentration-dependent, TS217 cells grown in 96 well plates were incubated with different concentrations of tetracycline for six days. Following treatment, each of the experimental cell groups were lysed and the cellular ATP measured as described above. Media with the vehicle alone (no tetracycline) served as control (FIG. 5). […]

The subject of assay [2] is TS217 cells. As to the kind of experiment: GM130 immunostaining of intact Golgi. The class given is cell-based, human. As to conditions: 0.1 μg/mL tetracycline, six day induction. How it is done:
TS217 cells were plated on glass tissue culture chamber slides coated with poly-L-lysine and incubated for six days in the absence (Control) or presence of 0.1 μg/mL tetracycline (Induced) to induce alpha-synuclein expression. Following treatment, cells were fixed with 4% paraformaldehyde supplemented with 4% sucrose in phosphate-buffered saline, permeabilized with 0.2% triton in PBS, and stained with antibodies specific for the cis-Golgi tethering protein GM130 (FIG. 6A). The number of cells containing intact Golgi was reduced by almost 80% following the six day induction of alpha-synuclein (FIG. 6B).

The test system of assay [3] is TS217 cells. As to the kind of experiment: Calcein AM staining of live cells. The class given is cell-based. The following applies: Homo sapiens, 120 h; 0.1 μg/mL tetracycline, 5 days; read-out: number of viable cells decreased (calcein-positive cells). How it is done: The cytotoxicity of alpha-synuclein overexpression in TS217 cells was also assessed using the membrane-permeable dye, calcein AM. TS217 cells were plated on glass tissue culture chamber slides coated with poly-L-lysine and cultured in the absence (Control) or presence (Induced) of 0.1 μg/mL tetracycline for 5 days to induce alpha-synuclein expression. Cells were treated with 2 μM calcein AM and the fluorescence of enzyme-activated calcein AM (in live cells) was visualized using a fluorescent microscope (Olympus, Center Valley, Pa.) fitted with a digital camera controlled by the Metamorph program (Universal Imaging, West Chester, Pa.). Calcein-positive cells were quantitated using Metamorph software (Universal Imaging, West Chester, Pa.) (FIG. 4A).

In the case of `CC(C)(C)n1nc(-c2ccc(Cl)cc2)c2c(N)ncnc21` [Cmp J, 1-t-Butyl-3-(4-chloro-phenyl)-1H-pyrazolo[3,4-d]pyrimidin-4-ylamine], in the assay with TS217 cells [1] (0.08, 0.15, 0.3 μM compound, with tetracycline induction for 5 days, FIG. 9), the “Relative viability (ATP, ratio of induced to control), effect on alpha-synuclein-induced toxicity” value was “rescue of alpha-synuclein-induced toxicity”.
For `CN(C)[C@@H]1C(O)=C(C(N)=O)C(=O)[C@@]2(O)C(O)=C3C(=O)c4c(O)cccc4[C@@](C)(O)[C@H]3C[C@@H]12` [tetracycline], in the assay with TS217 cells [2], the “number of cells containing intact Golgi reduced” value is on record as approximately 80%. In addition, the cytotoxicity at 0.1 µg/mL with TS217 cells [3] is approximately 60%. In the assay on TS217 cells [1] (0.1 μg/mL tetracycline, from day 3 to day 6, no other toxicity-inducing agents), the “Relative cell viability decreased (ratio of induced cells to control cells)” value is recorded as “over 50%”.
